Tests used:
Assay in all cases: relative viability (nuclei count vs DMSO), 5 days (fraction); higher = more cells survive
[1] = compound: C1=CC=C2C(=C1)N=C(S2)C(C#N)C3=NC(=NC=C3)NCCC4=CN=CC=C4 + COc1cccc2cc(-c3nc([C@H]4CC[C@H](C(=O)O)CC4)n4ncnc(N)c34)[nH]c12 [OSI-027] (partner 0.5 µM)
Outline: (§1)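 The day after seeding in 1536-well plates, lung cancer cell lines were treated by pin tool with a single drug, or with a fixed anchor-drug dose together with five library-drug doses (not always all listed) in √10 steps. After 5 days, a combined fix-and-stain solution (final 0.05% Triton X-100, 1% formaldehyde, 1 ug/ml Hoechst) was added. Nuclei counted on 4× images gave relative viability as treated counts over vehicle counts, reported as the median of duplicate plates.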

Vandetanib + Alpelisib = compound: COc1cc2/c(=N/c3ccc(Br)cc3F)nc[nH]c2cc1OCC1CCN(C)CC1 [Vandetanib] + Cc1nc(NC(=O)N2CCC[C@H]2C(N)=O)sc1-c1ccnc(C(C)(C)C(F)(F)F)c1 [Alpelisib] (partner 2 µM)
Outline: as §1

Vandetanib + Olaparib = compound: COc1cc2/c(=N/c3ccc(Br)cc3F)nc[nH]c2cc1OCC1CCN(C)CC1 [Vandetanib] + O=C(c1cc(Cc2n[nH]c(=O)c3ccccc23)ccc1F)N1CCN(C(=O)C2CC2)CC1 [Olaparib] (partner 8 µM)
Outline: as §1

Vandetanib + Phenformin = compound: COc1cc2/c(=N/c3ccc(Br)cc3F)nc[nH]c2cc1OCC1CCN(C)CC1 [Vandetanib] + N=C(N)NC(=N)NCCc1ccccc1 [Phenformin] (partner 250 µM)
Outline: as §1

Cell Line | relative viability ([1]; first compound 0.005 µM) | relative viability ([1]; first compound 0.01581 µM) | relative viability ([1]; first compound 0.05 µM) | relative viability ([1]; first compound 0.1581 µM) | relative viability ([1]; first compound 0.5 µM) | relative viability (Vandetanib + Alpelisib; first compound 0.02 µM) | relative viability (Vandetanib + Alpelisib; first compound 0.06325 µM) | relative viability (Vandetanib + Alpelisib; first compound 0.2 µM) | relative viability (Vandetanib + Alpelisib; first compound 0.6325 µM) | relative viability (Vandetanib + Alpelisib; first compound 2 µM) | relative viability (Vandetanib + Olaparib; first compound 0.02 µM) | relative viability (Vandetanib + Olaparib; first compound 0.06325 µM) | relative viability (Vandetanib + Olaparib; first compound 0.2 µM) | relative viability (Vandetanib + Olaparib; first compound 0.6325 µM) | relative viability (Vandetanib + Olaparib; first compound 2 µM) | relative viability (Vandetanib + Phenformin; first compound 0.02 µM) | relative viability (Vandetanib + Phenformin; first compound 0.06325 µM) | relative viability (Vandetanib + Phenformin; first compound 0.2 µM) | relative viability (Vandetanib + Phenformin; first compound 0.6325 µM) | relative viability (Vandetanib + Phenformin; first compound 2 µM)
EMC-BAC-2 | 0.364 | 0.37 | 0.38 | 0.394 | 0.366 | 0.737 | 0.742 | 0.472 | 0.712 | 0.717 | 0.509 | 0.478 | 0.498 | 0.492 | 0.531 | 0.51 | 0.506 | 0.339 | 0.485 | 0.463
NCI-H1437 | 0.855 | 0.817 | 0.93 | 0.917 | 0.723 | 0.922 | 0.965 | 0.94 | 1 | 0.902 | 0.588 | 0.667 | 0.643 | 0.615 | 0.612 | 0.271 | 0.3 | 0.345 | 0.272 | 0.299
NCI-H1944 | 0.396 | 0.343 | 0.417 | 0.513 | 0.359 | 0.781 | 0.81 | 0.807 | 0.757 | 0.744 | 0.414 | 0.396 | 0.306 | 0.377 | 0.397 | 0.205 | 0.195 | 0.209 | 0.168 | 0.188
NCI-H838 | 0.4 | 0.351 | 0.361 | 0.459 | 0.396 | 0.98 | 0.957 | 0.991 | 1.04 | 1.05 | 0.773 | 0.769 | 0.776 | 0.764 | 0.74 | 0.533 | 0.579 | 0.617 | 0.542 | 0.646
HCC-827 | 0.617 | 1.11 | 0.854 | 0.978 | 0.783 | 1.02 | 0.986 | 0.752 | 0.233 | 0.167 | 0.629 | 0.653 | 0.627 | 0.309 | 0.152 | 0.441 | 0.367 | 0.319 | 0.157 | 0.165
NCI-H2342 | 0.532 | 0.64 | 0.569 | 0.671 | 0.578 |  |  |  |  |  | 0.482 | 0.41 | 0.477 | 0.415 | 0.438 | 0.596 | 0.496 | 0.592 | 0.576 | 0.477
LOU-NH91 | 0.673 | 0.689 | 0.703 | 0.733 | 0.729 | 0.753 | 0.619 | 0.539 | 0.551 | 0.481 | 0.901 | 0.788 | 0.813 | 0.732 | 0.679 | 0.709 | 0.619 | 0.537 | 0.509 | 0.51
NCI-H3122 | 0.671 | 0.923 | 0.895 | 1.34 | 0.819 | 0.781 | 0.756 | 0.778 | 0.765 | 0.822 | 0.617 | 0.576 | 0.232 | 0.567 | 0.621 | 0.348 | 0.374 | 0.327 | 0.303 | 0.333
NCI-H1563 | 0.643 | 0.744 | 0.705 | 0.838 | 0.618 | 0.852 | 0.958 | 0.88 | 0.904 | 0.916 |  |  |  |  |  | 0.679 | 0.629 | 0.695 | 0.616 | 0.625
NCI-H1734 |  | 0.571 | 0.546 | 0.669 | 0.556 | 0.673 | 0.684 | 0.737 | 0.756 | 0.678 | 0.58 | 0.576 | 0.679 | 0.612 | 0.572 | 0.403 | 0.369 | 0.32 | 0.379 | 0.39
EPLC-272H | 0.217 | 0.264 | 0.254 | 0.257 | 0.301 | 0.865 | 0.814 | 0.96 | 0.909 | 0.997 | 0.969 | 0.526 | 1.19 | 0.854 | 0.49 | 0.326 |  | 0.294 | 0.273 | 0.301
RERF-LC-KJ | 0.645 | 0.564 | 0.511 | 0.63 | 0.562 | 0.82 | 0.694 | 0.833 | 0.774 | 0.678 | 0.891 | 0.959 | 0.898 | 0.75 | 0.83 | 0.436 | 0.379 | 0.37 | 0.375 | 0.335
EBC-1 |  |  |  |  |  | 0.81 | 0.784 | 0.862 | 0.809 | 0.746 | 0.698 | 0.603 | 0.69 | 0.782 | 0.693 |  |  |  |  | 
HARA | 0.602 | 0.373 | 0.493 | 0.464 | 0.472 | 0.812 | 0.76 | 0.861 | 0.821 | 0.537 | 0.624 | 0.821 | 0.681 | 0.867 | 0.883 | 0.471 | 0.447 | 0.44 | 0.381 | 0.351
NCI-H1651 | 0.69 | 0.672 | 0.72 | 0.939 | 0.674 | 0.912 | 0.905 | 0.953 | 1.02 | 0.837 | 0.176 | 0.179 | 0.17 | 0.165 | 0.19 | 0.304 | 0.299 | 0.325 | 0.353 | 0.311
NCI-H2405 | 0.666 | 0.673 | 0.614 | 0.695 | 0.645 | 0.813 | 0.405 | 0.733 | 0.958 | 0.677 | 0.835 | 0.816 | 0.895 | 0.948 | 0.837 | 0.376 | 0.302 | 0.374 | 0.39 | 0.202
NCI-H596 | 0.541 | 0.682 | 0.595 | 0.826 | 0.674 | 0.515 | 0.518 | 0.618 | 0.593 | 0.453 | 0.616 | 0.62 | 0.726 | 0.655 | 0.705 | 0.917 | 0.623 | 0.698 | 0.747 | 0.698

Source: the supplement of paper PMC10307832
